Activity calls are given as the source filed them. The calls are words filed in the database; no cut-off is given here.
Key:
HCC827 [1] = test: Antiproliferative activity against human HCC827 cells assessed as inhibition of cell growth measured after 72 hrs by MTT assay; assay type: functional, cell-based; settings: HCC827, 72 h
NCI-H1975 = test: Antiproliferative activity against human NCI-H1975 cells assessed as inhibition of cell growth measured after 72 hrs by MTT assay; assay type: functional, cell-based; settings: NCI-H1975, 72 h
[2] = biological target: T1, Epidermal growth factor receptor (Homo sapiens, UniProt P00533); test: Inhibition of wild type EGFR (unknown origin) preincubated for 10 mins followed by substrate addition and measured after 50 mins in presence of ATP by HTRF assay
[3] = biological target: Epidermal growth factor receptor (Homo sapiens, UniProt P00533, EX19DEL/T790M); test: Inhibition of EGFR Del19/T790M (unknown origin) preincubated for 10 mins followed by substrate addition and measured after 50 mins in presence of ATP by HTRF assay
[4] = biological target: Epidermal growth factor receptor (Homo sapiens, UniProt P00533, C797S/EX19DEL/T790M); test: Inhibition of EGFR Del19/T790M/C797S triple mutant (unknown origin) preincubated for 10 mins followed by substrate addition and measured after 50 mins in presence of ATP by HTRF assay
[5] = biological target: Tyrosine-protein kinase ABL1 (Homo sapiens) (UniProt P00519); test: Inhibition of Abl (unknown origin) by HTRF assay relative to control; settings: concentration not given here
Homo sapiens [6] = species on record: Homo sapiens; test: Inhibition of Akt (unknown origin) by HTRF assay relative to control; settings: concentration not given here
[7] = biological target: Tyrosine-protein kinase BTK (Homo sapiens) (UniProt Q06187); test: Inhibition of BTK (unknown origin) by HTRF assay relative to control; settings: concentration not given here
Homo sapiens [8] = species on record: Homo sapiens; test: Inhibition of FGFR (unknown origin) by HTRF assay relative to control; settings: concentration not given here
[9] = biological target: Dual specificity mitogen-activated protein kinase kinase; MEK1/2 (Homo sapiens) (UniProt P36507+Q02750); test: Inhibition of MEK1/2 (unknown origin) by HTRF assay relative to control; assay type: protein assay; settings: concentration not given here
[10] = biological target: Serine/threonine-protein kinase mTOR (Homo sapiens) (UniProt P42345); test: Inhibition of mTOR (unknown origin) by HTRF assay relative to control; settings: concentration not given here
[11] = biological target: Platelet-derived growth factor receptor alpha (Homo sapiens) (UniProt P16234); test: Inhibition of PDGFR alpha (unknown origin) by HTRF assay relative to control; settings: concentration not given here
[12] = Cytotoxicity against human L02 cells assessed as inhibition of cell viability measured after 72 hrs by MTT assay; assay type: toxicity, cell-based
HCC827 [13] = test: Inhibition of colony formation in human HCC827 cells at 10 to 30 nM measured after 14 days by crystal violet staining based analysis; assay type: functional, cell-based; settings: dose 10-30 nM, time 14.0 day
HCC827 [14] = test: Induction of cell cycle arrest in human HCC827 cells assessed as accumulation of cells at G0/G1 phase at 10 nM measured after 24 hrs by PI staining based flow cytometry analysis (reference value: 54.36%); assay type: functional
HCC827 [15] = test: Induction of cell cycle arrest in human HCC827 cells assessed as accumulation of cells at G0/G1 phase at 30 nM measured after 24 hrs by PI staining based flow cytometry analysis (reference value: 54.36%); assay type: functional
HCC827 [16] = test: Induction of cell cycle arrest in human HCC827 cells assessed as accumulation of cells at G0/G1 phase at 100 nM measured after 24 hrs by PI staining based flow cytometry analysis (reference value: 54.36%); assay type: functional
HCC827 [17] = test: Induction of cell cycle arrest in human HCC827 cells assessed as accumulation of cells at G2/M phase at 10 nM measured after 24 hrs by PI staining based flow cytometry analysis (reference value: 16.83%); assay type: functional
HCC827 [18] = test: Induction of cell cycle arrest in human HCC827 cells assessed as accumulation of cells at G2/M phase at 30 nM measured after 24 hrs by PI staining based flow cytometry analysis (reference value: 16.83%); assay type: functional
HCC827 [19] = test: Induction of apoptosis in human HCC827 cells assessed as viable cells at 10 nM measured after 24 hrs by annexin V/PI staining based flu cytometry analysis (reference value: 84.0%); assay type: functional; settings: read-out: Activity
HCC827 [20] = test: Induction of apoptosis in human HCC827 cells assessed as viable cells at 100 nM measured after 24 hrs by annexin V/PI staining based flu cytometry analysis (reference value: 84.0%); assay type: functional; settings: read-out: Activity
HCC827 [21] = test: Induction of apoptosis in human HCC827 cells assessed as early apoptotic cells at 30 nM measured after 24 hrs by annexin V/PI staining based flu cytometry analysis (reference value: 3.2%); assay type: functional
HCC827 [22] = test: Induction of apoptosis in human HCC827 cells assessed as late apoptotic cells at 100 nM measured after 24 hrs by annexin V/PI staining based flu cytometry analysis (reference value: 5.50%); assay type: functional
HCC827 [23] = test: Induction of apoptosis in human HCC827 cells assessed as necrotic cells at 10 nM measured after 24 hrs by annexin V/PI staining based flu cytometry analysis (reference value: 7.34%); assay type: functional
HCC827 [24] = test: Induction of apoptosis in human HCC827 cells assessed as necrotic cells at 30 nM measured after 24 hrs by annexin V/PI staining based flu cytometry analysis (reference value: 7.34%); assay type: functional
HCC827 [25] = test: Induction of apoptosis in human HCC827 cells assessed as activation of cleaved-PARP level measured after 48 hrs by Western blot analysis; assay type: functional, cell-based; settings: dose 10-400 nM
[26] = system: Epidermal growth factor receptor (Homo sapiens), P00533 [UNDEFINED MUTATION]; settings: dose 30.0 nM
[27] = biological target: T1, Epidermal growth factor receptor; settings: dose 100.0 nM
Description: Inhibition of EGFR phosphorylation (unknown origin) at 100 nM by Western blotting analysis

[28] = Inhibition of ERK (unknown origin) by HTRF assay relative to control; settings: Homo sapiens; concentration not given here

T1 sequence (P00533 whole entry): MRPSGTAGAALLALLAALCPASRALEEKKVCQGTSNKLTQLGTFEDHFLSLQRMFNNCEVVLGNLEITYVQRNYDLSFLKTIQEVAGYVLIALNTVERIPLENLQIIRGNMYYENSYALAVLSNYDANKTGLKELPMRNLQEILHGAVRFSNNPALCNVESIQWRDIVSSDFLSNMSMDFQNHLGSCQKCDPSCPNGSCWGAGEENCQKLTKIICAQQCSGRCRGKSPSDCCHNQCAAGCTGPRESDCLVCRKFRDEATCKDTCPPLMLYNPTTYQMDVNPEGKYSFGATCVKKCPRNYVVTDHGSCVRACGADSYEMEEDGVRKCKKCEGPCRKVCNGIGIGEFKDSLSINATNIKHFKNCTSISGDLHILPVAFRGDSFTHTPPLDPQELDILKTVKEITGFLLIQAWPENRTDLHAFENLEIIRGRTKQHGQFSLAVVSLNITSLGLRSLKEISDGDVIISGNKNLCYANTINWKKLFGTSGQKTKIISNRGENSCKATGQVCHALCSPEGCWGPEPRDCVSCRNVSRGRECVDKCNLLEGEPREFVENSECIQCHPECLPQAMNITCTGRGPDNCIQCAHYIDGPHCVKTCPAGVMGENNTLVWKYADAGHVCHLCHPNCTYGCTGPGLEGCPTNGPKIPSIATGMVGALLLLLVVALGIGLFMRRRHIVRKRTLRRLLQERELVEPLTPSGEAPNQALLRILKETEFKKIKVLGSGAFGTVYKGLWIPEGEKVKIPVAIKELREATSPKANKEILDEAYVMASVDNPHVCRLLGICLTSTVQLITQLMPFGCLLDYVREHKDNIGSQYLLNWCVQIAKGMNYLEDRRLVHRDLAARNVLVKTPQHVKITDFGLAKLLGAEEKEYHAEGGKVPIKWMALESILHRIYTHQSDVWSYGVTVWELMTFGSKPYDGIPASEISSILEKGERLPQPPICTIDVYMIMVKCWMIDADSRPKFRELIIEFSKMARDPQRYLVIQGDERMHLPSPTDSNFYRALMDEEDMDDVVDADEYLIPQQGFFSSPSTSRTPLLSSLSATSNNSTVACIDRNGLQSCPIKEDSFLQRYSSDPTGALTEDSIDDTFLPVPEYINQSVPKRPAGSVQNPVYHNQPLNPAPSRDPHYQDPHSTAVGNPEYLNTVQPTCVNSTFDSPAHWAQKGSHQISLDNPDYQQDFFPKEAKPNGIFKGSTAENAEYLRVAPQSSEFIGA
Chain of Epidermal growth factor receptor (Homo sapiens), P00533 [UNDEFINED MUTATION] (P00533 whole entry, looked up, change not shown): as the sequence (P00533 whole entry) above
Chain of Epidermal growth factor receptor (Homo sapiens, UniProt P00533, C797S/EX19DEL/T790M) (P00533 whole entry, looked up, stated change not applied): as the sequence (P00533 whole entry) above
Chain of Epidermal growth factor receptor (Homo sapiens, UniProt P00533, EX19DEL/T790M) (P00533 whole entry, looked up, stated change not applied): as the sequence (P00533 whole entry) above

O=C(NO)c1sccc1Nc1nc(Nc2ccc(N3CCOCC3)cc2)ncc1Cl
IC50 (HCC827 [1]): 25 nM | IC50 (NCI-H1975): 168 nM | IC50 [2]: 16.2 nM | IC50 [3]: 214 nM | IC50 [4]: 16.1 nM | inhibition [5]: < 70% | inhibition (Homo sapiens [6]): < 70% | inhibition [7]: < 70% | inhibition (Homo sapiens [8]): < 70% | inhibition [9]: < 70% | inhibition [10]: < 70% | inhibition [11]: < 70% | IC50 at 72 h [12]: 2450 nM | inhibition (HCC827 [13]): Active | Activity (HCC827 [14]): 66.03% | Activity (HCC827 [15]): 68.63% | Activity (HCC827 [16]): 44.23% | Activity (HCC827 [17]): 17.56% | Activity (HCC827 [18]): 19.06% | viability at 0.01 µM (HCC827 [19]): 77.6% | viability at 0.1 µM (HCC827 [20]): 76% | Activity (HCC827 [21]): 11.4% | Activity (HCC827 [22]): 14.3% | Activity (HCC827 [23]): 6.5% | Activity (HCC827 [24]): 7.64% | Activity (HCC827 [25]): Dose-Dependent Effect | inhibition [26]: 61.9% | inhibition [27]: Active | inhibition [28]: < 70%

Source: ChEMBL document CHEMBL5518185, “Design, synthesis and antitumor activity of 4-arylamine substituted pyrimidine derivatives as noncovalent EGFR inhibitors overcoming C797S mutation” (Eur J Med Chem, 2024)
